Assay results: US9604975B2, “Indolyl-pyridone derivatives having checkpoint kinase 1 inhibitory activity” (Vernalis (R&D) Ltd., priority 2009, dated 2017)

Target: T1, CHK1 (Homo sapiens, UniProt O14757)
T1 construct: His; purchased Invitrogen
T1 sequence (O14757 1-476): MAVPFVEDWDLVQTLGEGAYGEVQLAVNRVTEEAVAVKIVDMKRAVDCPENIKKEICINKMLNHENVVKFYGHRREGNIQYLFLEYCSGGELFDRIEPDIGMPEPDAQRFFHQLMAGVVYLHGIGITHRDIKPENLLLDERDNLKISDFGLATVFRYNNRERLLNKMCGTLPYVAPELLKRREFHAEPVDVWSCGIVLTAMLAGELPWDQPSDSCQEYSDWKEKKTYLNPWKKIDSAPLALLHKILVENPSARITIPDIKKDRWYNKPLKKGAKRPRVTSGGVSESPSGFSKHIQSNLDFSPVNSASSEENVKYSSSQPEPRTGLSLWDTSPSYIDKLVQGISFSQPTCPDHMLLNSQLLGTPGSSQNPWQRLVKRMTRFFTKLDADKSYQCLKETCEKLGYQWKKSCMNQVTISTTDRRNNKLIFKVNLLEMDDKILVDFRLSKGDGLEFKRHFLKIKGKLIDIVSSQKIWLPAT
Assay: CHK1 Enzyme Assay (phosphorylation of Chktide peptide, 33P-ATP filter assay)
Format: biochemical
Conditions: 12.5 nM His-CHK1, 0.01 mM ATP, 40 minutes at 30° C.; read-out: CHK1 Enzyme Activity (IC50 range)
Experimental: Assays for the CHK1 kinase activity were carried out by monitoring the phosphorylation of a synthetic peptide Chktide with the amino acid sequence, […]. The assay mixture containing the inhibitor and CHK1 enzyme was mixed together in a microtiter plate in a final volume of 50 μl and incubated for 40 minutes at 30° C.
The assay mixture contained 0.01 mM unlabeled ATP, 0.5 μCi ^33P-γ-ATP, 14.8 μM Chktide, 0.1 mg/mL BSA, 50 mM Hepes-NaOH pH 7.5 and 12.5 nM His-CHK1 (Invitrogen) enzyme. The reaction was stopped by adding 50 μL of 50 mM phosphoric acid. 90 μL of the mixture was transferred to a pre-wetted 96-well multi-screen MAPHNOB filtration plate (Millipore) and filtered on a vacuum manifold. The filter plate was washed with 3 successive additions of 200 μl 50 mM phosphoric acid and then with 100 μL methanol. The filtration plate was dried for 10 min at 65° C., scintillant added and phosphorylated peptide quantified in a scintillation counter (Trilux, PerkinElmer).

Compound | IC50
O=C(Nc1c[nH]c(=O)c(-c2cc3cc(OCCCN4CCCC4=O)ccc3[nH]2)c1)c1cnn(Cc2ccccc2)c1 [Example 148, 1-Benzyl-1H-pyrazole-4-carboxylic acid (6-oxo-5-{5-[3-(2-oxo-pyrrolidin-1-yl)-propoxy]-1H-indole-2-yl}-1,6-dihydro-pyridin-3-yl)-amide] | < 100 nM
O=C(Nc1cnn(Cc2ccccc2F)c1)c1c[nH]c(=O)c(-c2cc3ccccc3[nH]2)c1 [Example 8, 5-(1H-Indol-2-yl)-6-oxo-1,6-dihydro-pyridine-3-carboxylic acid [1-(2-fluoro-benzyl)-1H-pyrazol-4-yl]-amide] | 100 to 500 nM
Cc1[nH]c(=O)c(-c2cc3ccccc3[nH]2)cc1NC(=O)c1cnn(Cc2ccccc2)c1 [Example 31, 1-Benzyl-1H-pyrazole-4-carboxylic acid [5-(1H-indol-2-yl)-2-methyl-6-oxo-1,6-dihydro-pyridin-3-yl]-amide] | < 100 nM
Cc1ccc(Cn2cc(C(=O)Nc3c[nH]c(=O)c(-c4cc5cc(OCCN(C)C)ccc5[nH]4)c3)cn2)cc1 [Example 132, 1-(4-Methyl-benzyl)-1H-pyrazole-4-carboxylic acid {5-[5-(2-dimethylamino-ethoxy)-1H-indol-2-yl]-6-oxo-1,6-dihydro-pyridin-3-yl}-amide] | < 100 nM
O=C(Nc1c[nH]c(=O)c(-c2cc3cc(CN4CCCCC4)ccc3[nH]2)c1)c1cnn(Cc2ccc(Cl)cc2)c1 [Example 44, 1-(4-Chloro-benzyl)-1H-pyrazole-4-carboxylic acid [6-oxo-5-(5-piperidin-1-ylmethyl-1H-indol-2-yl)-1,6-dihydro-pyridin-3-yl]-amide] | < 100 nM
CC(C)(COc1ccc2[nH]c(-c3cc(NC(=O)c4cnn(Cc5ccccc5)c4)c[nH]c3=O)cc2c1)CN1CCC(F)(F)C1 [Example 181, 1-Benzyl-1H-pyrazole-4-carboxylic acid (5-{5-[3-(3,3-difluoro-pyrrolidin-1-yl)-2,2-dimethyl-propoxy]-1H-indol-2-yl}-6-oxo-1,6-dihydro-pyridin-3-yl)-amide] | < 100 nM
CC(c1ccccc1)n1cc(C(=O)Nc2c[nH]c(=O)c(-c3cc4cc(CN5C[C@@H](C)O[C@@H](C)C5)ccc4[nH]3)c2)cn1 (stereo partly drawn) [Example 91, 1-(1-Phenyl-ethyl)-1H-pyrazole-4-carboxylic acid {5-[5-(cis-2,6-dimethyl-morpholin-4-ylmethyl)-1H-indol-2-yl]-6-oxo-1,6-dihydro-pyridin-3-yl}-amide] | < 100 nM
O=C(Nc1c[nH]c(=O)c(-c2cc3cc(CN4CCCC4)ccc3[nH]2)c1)c1cnn(Cc2ccccc2)c1 [Example 50, 1-Benzyl-1H-pyrazole-4-carboxylic acid [6-oxo-5-(5-pyrrolidin-1-ylmethyl-1H-indol-2-yl)-1,6-dihydro-pyridin-3-yl]-amide] | < 100 nM
CN1CCN(Cc2ccc3[nH]c(-c4cc(C(=O)Nc5cnn(Cc6ccc(F)c(F)c6)c5)c[nH]c4=O)cc3c2)CC1 [Example 104, 5-[5-(4-Methyl-piperazin-1-ylmethyl)-1H-indol-2-yl]-6-oxo-1,6-dihydro-pyridine-3-carboxylic acid [1-(3,4-difluoro-benzyl)-1H-pyrazol-4-yl]-amide] | < 100 nM
Cc1[nH]c(=O)c(-c2cc3ccccc3[nH]2)cc1NC(=O)c1cnn(Cc2ccc(F)cc2)c1 [Example 32, 1-(4-Fluoro-benzyl)-1H-pyrazole-4-carboxylic acid [5-(1H-indol-2-yl)-2-methyl-6-oxo-1,6-dihydro-pyridin-3-yl]-amide] | 100 to 500 nM
O=C(Nc1c[nH]c(=O)c(-c2cc3cc(OCCN4CCCCC4)ccc3[nH]2)c1)c1cnn(Cc2ccc(C(F)(F)F)cc2)c1 [Example 121, 1-(4-Trifluoromethyl-benzyl)-1H-pyrazole-4-carboxylic acid {6-oxo-5-[5-(2-piperidin-1-yl-ethoxy)-1H-indol-2-yl]-1,6-dihydro-pyridin-3-yl}-amide] | < 100 nM
CN1CCN(CCCOc2ccc3[nH]c(-c4cc(NC(=O)c5cnn(Cc6ccccc6)c5)c[nH]c4=O)cc3c2)CC1 [Example 140, 1-Benzyl-1H-pyrazole-4-carboxylic acid {5-[5-[3-(4-methyl-piperazin-1-yl)-propoxy]-1H-indol-2-yl}-6-oxo-1,6-dihydro-pyridin-3-yl)-amide] | < 100 nM
CC(C)(C)c1ccc(Cn2cc(C(=O)Nc3c[nH]c(=O)c(-c4cc5cc(OCCCN6CCCCC6)ccc5[nH]4)c3)cn2)cc1 [Example 153, 1-(4-tert-Butylbenzyl)-1H-pyrazole-4-carboxylic acid-{6-oxo-5-[5-(3-piperidin-1-ylpropoxy)-1H-indol-2-yl]-1,6-dihydropyridin-3-yl}-amide] | < 100 nM
CC1CCN(Cc2ccc3[nH]c(-c4cc(NC(=O)c5cnn(C(C)c6ccccc6)c5)c[nH]c4=O)cc3c2)CC1 (stereo not drawn) [Example 92, 1-(1-Phenyl-ethyl)-1H-pyrazole-4-carboxylic acid {5-[5-(4-methyl-piperidin-1-ylmethyl)-1H-indol-2-yl]-6-oxo-1,6-dihydro-pyridin-3-yl}-amide] | < 100 nM
O=C(Nc1cnn(Cc2ccc(Cl)cc2)c1)c1c[nH]c(=O)c(-c2cc3ccccc3[nH]2)c1 [Example 12, 5-(1H-Indol-2-yl)-6-oxo-1,6-dihydro-pyridine-3-carboxylic acid [1-(4-chloro-benzyl)-1H-pyrazol-4-yl]-amide] | 100 to 500 nM
Cc1ccc(Cn2cc(C(=O)Nc3c[nH]c(=O)c(-c4cc5cc(OCCN6CC(C)OC(C)C6)ccc5[nH]4)c3)cn2)cc1 (stereo not drawn) [Example 131, 1-(4-Methyl-benzyl)-1H-pyrazole-4-carboxylic acid (5-{5-[2-(2,6-dimethyl-morpholin-4-yl)-ethoxy]-1H-indol-2-yl}-6-oxo-1,6-dihydro-pyridin-3-yl)-amide] | < 100 nM
O=C(Nc1c[nH]c(=O)c(-c2cc3ccccc3[nH]2)c1)c1cnn(Cc2cccc(F)c2)c1 [Example 22, 1-(3-Fluoro-benzyl)-1H-pyrazole-4-carboxylic acid [5-(1H-indol-2-yl)-6-oxo-1,6-dihydro-pyridin-3-yl]-amide] | < 100 nM
O=C(Nc1c[nH]c(=O)c(-c2cc3cc(CN4CCC(O)CC4)ccc3[nH]2)c1)c1cnn(Cc2ccccc2)c1 [Example 60, 1-Benzyl-1H-pyrazole-4-carboxylic acid {5-[5-(4-hydroxy-piperidin-1-ylmethyl)-1H-indol-2-yl]-6-oxo-1,6-dihydro-pyridin-3-yl}-amide] | < 100 nM
O=C(Nc1c[nH]c(=O)c(-c2cc3c(CN4CCCCC4)cccc3[nH]2)c1)c1cnn(Cc2ccccc2)c1 [Example 108, 1-Benzyl-1H-pyrazole-4-carboxylic acid [6-oxo-5-(4-piperidin-1-ylmethyl-1H-indol-2-yl)-1,6-dihydro-pyridin-3-yl]-amide] | < 100 nM
O=C(Nc1c[nH]c(=O)c(-c2cc3cc(CN4CCCC(F)C4)ccc3[nH]2)c1)c1cnn(Cc2ccccc2)c1 (stereo not drawn) [Example 57, 1-Benzyl-1H-pyrazole-4-carboxylic acid {5-[5-(3-fluoro-piperidin-1-ylmethyl)-1H-indol-2-yl]-6-oxo-1,6-dihydro-pyridin-3-yl}-amide] | < 100 nM
CC(C)c1ccc(Cn2cc(C(=O)Nc3c[nH]c(=O)c(-c4cc5cc(CN6CCC(F)CC6)ccc5[nH]4)c3)cn2)cc1 [Example 73, 1-(4-isopropylbenzyl)-1H-pyrazole-4-carboxylic acid {5-[5-(4-fluoropiperidin-1-ylmethyl)-1H-indol-2-yl)-6-oxo-1,6-dihydropyridin-3-yl}-amide] | < 100 nM
